The values below come from ChEMBL document CHEMBL1139502, “Oxazine 170 induces DNA:RNA:DNA triplex formation” (J Med Chem, 2005).

For the test, the system named is Nucleic Acid. The experiment in a line: Apparent binding constant towards calf thymus DNA. The following applies: Bos taurus. In kind it is nucleic-acid assay.

With `CC/N=c1/cc2oc3cc(NCC)c(C)cc3nc-2c2ccccc12`, the K app turned out to be 26000 M⁻¹.
